Measurements: article PMC12527922, “Cocaine chemogenetics blunts drug-seeking by synthetic physiology” (Nature, 2025)
pEC50: −log10 of the molar value. Where two headings read alike, the source gives them in different places.

Columns and labels:
coca-GlyR = biological target: T1, coca-GlyR (Homo sapiens, UniProt P23415+P36544, G175K/L141G/Y217F); experiment: Whole-cell voltage-clamp in HEK293 cells, coca-GlyR; type: cell-based; details: transfected HEK293
T1 construct: expressed in transfected cells; host or cells: HEK293 (ATCC CRL-1573), pcDNA3.1
T1 sequence (P36544+P23415 fused P36544:L141G/P36544:G175K/P36544:Y217F): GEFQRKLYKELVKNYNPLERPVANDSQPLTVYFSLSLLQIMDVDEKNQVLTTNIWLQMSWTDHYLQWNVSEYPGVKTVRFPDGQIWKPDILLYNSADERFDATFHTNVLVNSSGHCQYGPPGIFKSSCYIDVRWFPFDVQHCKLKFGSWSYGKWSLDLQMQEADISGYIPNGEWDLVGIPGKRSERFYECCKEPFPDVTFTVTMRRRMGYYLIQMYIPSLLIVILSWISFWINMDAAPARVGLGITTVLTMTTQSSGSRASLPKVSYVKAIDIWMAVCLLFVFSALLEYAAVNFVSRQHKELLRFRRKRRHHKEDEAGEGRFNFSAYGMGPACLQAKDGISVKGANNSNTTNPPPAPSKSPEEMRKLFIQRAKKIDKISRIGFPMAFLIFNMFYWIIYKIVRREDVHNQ
Procedure: Channel mutants and agonists were further characterized in whole-cell voltage-clamp experiments performed on HEK293 cells. At passage 44–48, cells were plated at low density (1 × 10^3 per cm^2) on poly-D-lysine-coated glass coverslips, then transfected in 10 cm^2 wells using the Fugene 6 transfection reagent (Roche) with DNA plasmids containing both an ion channel cDNA (pcDNA3.1, 2 µg per well) and cDNA for GFP (pCMV, 0.1 μg per well), followed by replacement of the medium after 3 h. Recordings were made 24–72 h after transfection.
Electrophysiological recordings were performed in whole-cell voltage-clamp mode, on an inverted fluorescence microscope (Olympus IX-51) using pClamp software and a […] amplifier (Molecular Devices). Electrophysiological data was filtered at 4 kHz, digitized at 10 kHz using a Digidata 1400 interface (Molecular Devices), recorded on a PC (Dell) and analysed using custom MATLAB software (MathWorks). Solutions were delivered from a gravity fed perfusion system through a capillary tube placed approximately […] from the recorded cell using an eight-way manifold pinch valve system (Nanion), which was controlled from the acquisition software. This allowed for up to seven concentrations of agonist to be tested. […]

control rats = experiment: Cocaine IVSA (intravenous self-administration), control rats; type: in vivo, rat
[1] = biological target: α7–5HT3 mutant chimeric channels (Homo sapiens, UniProt P36544, S170E); experiment: cell-based; type: cell-based, human α7 nAChR LBD, mouse 5HT3 IPD
α7–5HT3 mutant chimeric channels (Homo sapiens, UniProt P36544, S170E), sequence (P23979 242-489): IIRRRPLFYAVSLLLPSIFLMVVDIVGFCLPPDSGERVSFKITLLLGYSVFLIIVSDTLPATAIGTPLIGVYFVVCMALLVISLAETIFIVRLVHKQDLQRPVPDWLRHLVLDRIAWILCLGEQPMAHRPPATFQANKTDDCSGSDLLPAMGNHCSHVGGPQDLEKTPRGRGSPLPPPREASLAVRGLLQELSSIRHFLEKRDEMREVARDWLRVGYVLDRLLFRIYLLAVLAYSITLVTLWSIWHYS
α7–5HT3 mutant chimeric channels (Homo sapiens, UniProt P36544, S170E), sequence (P36544 23-224 S170E): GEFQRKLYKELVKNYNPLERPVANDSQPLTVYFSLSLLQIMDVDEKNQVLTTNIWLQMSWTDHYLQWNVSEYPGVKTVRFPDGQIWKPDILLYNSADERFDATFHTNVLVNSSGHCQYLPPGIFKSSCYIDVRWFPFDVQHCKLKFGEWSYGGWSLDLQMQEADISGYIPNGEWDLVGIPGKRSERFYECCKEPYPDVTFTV

[2] = biological target: α7–5HT3 mutant chimeric channels (Homo sapiens, UniProt P36544, Q139K); experiment: cell-based; type: cell-based, human α7 nAChR LBD, mouse 5HT3 IPD
α7–5HT3 mutant chimeric channels (Homo sapiens, UniProt P36544, Q139K), sequence (P23979 242-489): as the sequence (P23979 242-489) above
α7–5HT3 mutant chimeric channels (Homo sapiens, UniProt P36544, Q139K), sequence (P36544 23-224 Q139K): as the sequence (P36544 23-224 S170E) above, with Q117K, E148S counted along it

[3] = biological target: α7–5HT3 mutant chimeric channels (Homo sapiens, UniProt P36544, Q139F); experiment: cell-based; type: cell-based, human α7 nAChR LBD, mouse 5HT3 IPD
α7–5HT3 mutant chimeric channels (Homo sapiens, UniProt P36544, Q139F), sequence (P36544 23-224 Q139F): as the sequence (P36544 23-224 S170E) above, with Q117F, E148S counted along it
α7–5HT3 mutant chimeric channels (Homo sapiens, UniProt P36544, Q139F), sequence (P23979 242-489, further chain): as the sequence (P23979 242-489) above

[4] = biological target: α7–5HT3 mutant chimeric channels (Homo sapiens, UniProt P36544, W77L); experiment: cell-based; type: cell-based, human α7 nAChR LBD, mouse 5HT3 IPD
α7–5HT3 mutant chimeric channels (Homo sapiens, UniProt P36544, W77L), sequence (P36544 23-224 W77L): as the sequence (P36544 23-224 S170E) above, with W55L, E148S counted along it
α7–5HT3 mutant chimeric channels (Homo sapiens, UniProt P36544, W77L), sequence (P23979 242-489, further chain): as the sequence (P23979 242-489) above

[5] = biological target: α7–5HT3 mutant chimeric channels (Homo sapiens, UniProt P36544, S170G); experiment: cell-based; type: cell-based, human α7 nAChR LBD, mouse 5HT3 IPD
α7–5HT3 mutant chimeric channels (Homo sapiens, UniProt P36544, S170G), sequence (P23979 242-489): as above
α7–5HT3 mutant chimeric channels (Homo sapiens, UniProt P36544, S170G), sequence (P36544 23-224 S170G): as the sequence (P36544 23-224 S170E) above, with E148G counted along it

[6] = biological target: α7–5HT3 mutant chimeric channels (Homo sapiens, UniProt P36544, S170W); experiment: cell-based; type: cell-based, human α7 nAChR LBD, mouse 5HT3 IPD
α7–5HT3 mutant chimeric channels (Homo sapiens, UniProt P36544, S170W), sequence (P23979 242-489): as the sequence (P23979 242-489) above
α7–5HT3 mutant chimeric channels (Homo sapiens, UniProt P36544, S170W), sequence (P36544 23-224 S170W): as the sequence (P36544 23-224 S170E) above, with E148W counted along it

[7] = tested on: hippocampal neurons expressing GFP; experiment: Current-clamp of control cultured hippocampal neurons expressing GFP; type: cell-based, rat; details: for DmV MEAN: IRES-EGFP control, MEAN of cells
multiple nAChR subtypes = details: cited from earlier work

COC(=O)[C@H]1[C@@H](OC(=O)c2ccccc2)C[C@@H]2CC[C@H]1N2C [cocaine]
currents from coca-GlyR (coca-GlyR): large, sustained currents
Sheet 3g, Mean (per-rat counts at each dose) (control rats; Dose 0.0625): 37.2
Sheet 3h, Mean (sheet 3g count x dose, intake) (control rats; Dose 0.0625): 2.325
Sheet 3g, Mean (per-rat counts at each dose) (control rats; Dose 0.125): 69.7333
Sheet 3h, Mean (sheet 3g count x dose, intake) (control rats; Dose 0.125): 8.717
Sheet 3g, Mean (per-rat counts at each dose) (control rats; Dose 0.25): 50.5385
Sheet 3h, Mean (sheet 3g count x dose, intake) (control rats; Dose 0.25): 12.6346
Sheet 3g, Mean (per-rat counts at each dose) (control rats; Dose 0.5): 27.6667
Sheet 3h, Mean (sheet 3g count x dose, intake) (control rats; Dose 0.5): 13.8333
Sheet 3g, Mean (per-rat counts at each dose) (control rats; Dose 1): 15
Sheet 3h, Mean (sheet 3g count x dose, intake) (control rats; Dose 1): 15
pEC50 [1]: < 4.52
pEC50 [2]: < 4.52
pEC50 ([2]; read-out: EC50 at a7 5HT3 Q139K, Avg, sheet 1d, Avg): < 4.52
pEC50 [3]: < 4.52
pEC50 ([3]; read-out: EC50 at a7 5HT3 Q139F, Avg, sheet 1d, Avg): < 4.52
pEC50 [4]: < 4.52
pEC50 ([4]; read-out: EC50 at a7 5HT3 W77L, Avg, sheet 1d, Avg): < 4.52
pEC50 [5]: < 4.52
pEC50 [6]: < 4.52
depolarization of control neurons ([7]; GFP control neurons): did not affect control neurons
DmV MEAN ([7]; cocaine 0.1 uM): -0.03 mV
DmV MEAN ([7]; cocaine 0.3 uM): -0.2411 mV
DmV MEAN ([7]; cocaine 1 uM): 0.04889 mV
DmV MEAN ([7]; cocaine 3 uM): 0.31 mV
DmV MEAN ([7]; cocaine 10 uM): -0.01556 mV
DmV MEAN ([7]; cocaine 30 uM): -0.4375 mV
activity at nAChR subtypes (multiple nAChR subtypes): low-affinity antagonist
